Assay results published in PubChem BioAssay AID330 (DTP/NCI, 2004).
Values joined by “and” are separate entries in the source; they are usually repeats but may differ in a detail not shown here. Equal values may be shown once. Inconclusive results and toxic doses are left out. How the source made its calls: active means survival T/C of 150% or more; inactive means T/C below 125% in these data.

Test system: P388 leukemia ip, CD2F1 mice, survival T/C
Assay: NCI In Vivo Anticancer Drug Screen. Data for tumor model P388 Leukemia (intraperitoneal) in CD2F1 (CDF1) mice
Details: endpoint: median survival time, higher = longer survival
Procedure, shortened: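 Mice carrying the transplanted tumor received test compound or vehicle. Survival was recorded in each group, and the value is the treated-group measurement divided by that of the vehicle-treated control group.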

[1] = dose: 60.0 mg/kg/injection, schedule: Q01DX005 (ip), vehicle: saline with Tween-80
[2] = dose: 120.0 mg/kg/injection, schedule: Q01DX005 (ip), vehicle: saline with Tween-80
[3] = dose: 240.0 mg/kg/injection, schedule: Q01DX005 (ip), vehicle: saline with Tween-80

Measured: T/C

C/C(=N\N(C)C)C1=C(O)C(C(C)C)NC1=O (stereo not drawn)
inactive: [1] 100 % of control | [2] 105 % of control | [3] 98 % of control

CCCNC(=O)CCC(NS(=O)(=O)c1ccccc1)C(=O)O (stereo not drawn)
inactive: dose: 100.0 mg/kg/injection, schedule: Q04DX002 (ip), vehicle: Klucel (hydroxypropylcellulose) (HPC) 91 % of control | dose: 200.0 mg/kg/injection, schedule: Q04DX002 (ip), vehicle: Klucel (hydroxypropylcellulose) (HPC) 102 % of control | dose: 400.0 mg/kg/injection, schedule: Q04DX002 (ip), vehicle: Klucel (hydroxypropylcellulose) (HPC) 96 % of control

Cc1cc(=O)n2c(nc3cc(C)c(C)cc32)s1
inactive: dose: 50.0 mg/kg/injection, schedule: Q01DX009 (ip), vehicle: Klucel (hydroxypropylcellulose) (HPC) 103 % of control | dose: 100.0 mg/kg/injection, schedule: Q01DX009 (ip), vehicle: Klucel (hydroxypropylcellulose) (HPC) 100 % of control

CC(N)C(=O)Nc1ccc(C(=O)O)c(O)c1 (stereo not drawn)
inactive: [1] 100 % of control | [2] 102 % of control | [3] 93 % of control

Cc1cccc(NC(=O)NC2CCCC(C)C2)c1 (stereo not drawn)
inactive: dose: 50.0 mg/kg/injection, schedule: Q01DX009 (ip), vehicle: saline 98 % of control | dose: 100.0 mg/kg/injection, schedule: Q01DX009 (ip), vehicle: saline 93 % of control | dose: 200.0 mg/kg/injection, schedule: Q01DX009 (ip), vehicle: saline 91 % of control

CC1NC(=O)N(C2CCCCCCC2)C1=O (stereo not drawn)
inactive: dose: 50.0 mg/kg/injection, schedule: Q01DX005 (ip), vehicle: Klucel (hydroxypropylcellulose) (HPC) 102 % of control | dose: 100.0 mg/kg/injection, schedule: Q01DX005 (ip), vehicle: Klucel (hydroxypropylcellulose) (HPC) 114 % of control | dose: 200.0 mg/kg/injection, schedule: Q01DX005 (ip), vehicle: Klucel (hydroxypropylcellulose) (HPC) 102 % of control

ClCCN(CCCl)c1ccc(/C=N/Nc2c3c(nc4ccccc24)CCCC3)cc1
inactive: dose: 0.39 mg/kg/injection, schedule: Q01DX009 (ip), vehicle: Klucel (hydroxypropylcellulose) (HPC) 95 % of control | dose: 0.78 mg/kg/injection, schedule: Q01DX009 (ip), vehicle: Klucel (hydroxypropylcellulose) (HPC) 108 % of control | dose: 1.56 mg/kg/injection, schedule: Q01DX009 (ip), vehicle: Klucel (hydroxypropylcellulose) (HPC) 95 % of control | dose: 12.5 mg/kg/injection, schedule: Q01DX009 (ip), vehicle: Klucel (hydroxypropylcellulose) (HPC) 90 % of control

C=CC(C)(CCC=C(C)C)N=C=O (stereo not drawn)
inactive: dose: 12.5 mg/kg/injection, schedule: Q01DX009 (ip), vehicle: distilled water + Tween-80 100 % of control | dose: 25.0 mg/kg/injection, schedule: Q01DX009 (ip), vehicle: distilled water + Tween-80 91 % of control | dose: 50.0 mg/kg/injection, schedule: Q01DX009 (ip), vehicle: distilled water + Tween-80 105 % of control | dose: 100.0 mg/kg/injection, schedule: Q01DX009 (ip), vehicle: distilled water + Tween-80 114 % of control | dose: 200.0 mg/kg/injection, schedule: Q01DX009 (ip), vehicle: distilled water + Tween-80 108 % of control

CN1CCN(C(=O)c2cccc3cccc(C(=O)O)c23)CC1
inactive: dose: 60.0 mg/kg/injection, schedule: Q01DX005 (ip), vehicle: water 103 % of control | dose: 120.0 mg/kg/injection, schedule: Q01DX005 (ip), vehicle: water 93 % of control | dose: 240.0 mg/kg/injection, schedule: Q01DX005 (ip), vehicle: water 100 % of control

O=C(O)C1Cc2nc[nH]c2CN1CO (stereo not drawn)
inactive: dose: 25.0 mg/kg/injection, schedule: Q01DX009 (ip), vehicle: saline with Tween-80 100 % of control | dose: 50.0 mg/kg/injection, schedule: Q01DX009 (ip), vehicle: saline with Tween-80 109 % of control and 114 % of control | dose: 100.0 mg/kg/injection, schedule: Q01DX009 (ip), vehicle: saline with Tween-80 119 % of control and 120 % of control

CC(/C=N/Nc1ccccc1)=N\N=c1/scc(-c2ccc(Cl)cc2)n1-c1ccc(Cl)cc1
inactive: dose: 50.0 mg/kg/injection, schedule: Q01DX005 (ip), vehicle: saline with Tween-80 86 % of control | dose: 100.0 mg/kg/injection, schedule: Q01DX005 (ip), vehicle: saline with Tween-80 92 % of control | dose: 200.0 mg/kg/injection, schedule: Q01DX005 (ip), vehicle: saline with Tween-80 94 % of control

c1ccc2c(SCCCCCCCCCCCSc3c4ccccc4nc4ccccc34)c3ccccc3nc2c1
inactive: dose: 60.0 mg/kg/injection, schedule: Q01DX005 (ip), vehicle: Klucel (hydroxypropylcellulose) (HPC) 106 % of control | dose: 120.0 mg/kg/injection, schedule: Q01DX005 (ip), vehicle: Klucel (hydroxypropylcellulose) (HPC) 101 % of control | dose: 240.0 mg/kg/injection, schedule: Q01DX005 (ip), vehicle: Klucel (hydroxypropylcellulose) (HPC) 90 % of control
